Literature values, collected in patent US7777053B2, “Efficient process for production of carvedilol phosphate” (Wanbury Limited, priority 2007, dated 2010).
Where a name gives a salt, the structure may show the parent alone. Read-outs that look alike come from different tables or passages of the source.

For COc1ccccc1OCCNCC(O)COc1cccc2[nH]c3ccccc3c12 (stereo not shown) [Carvedilol, 1-(9H-carbazol-4yloxy)-3-[[2-(2-methoxyphenoxy)-ethyl]amino]-propan-2-ol], the solubility (neutral or alkaline media, above pH of 9.0) is given as < 1 µg/mL, the saturation solubility (pH=5, room temperature) is given as “about 100 μg/ml” and the saturation solubility (pH=7, room temperature) is given as “about 23 μg/ml”.

In the case of COc1ccccc1OCCNCC(O)COc1cccc2[nH]c3ccccc3c12 (stereo not shown) [carvedilol phosphate, phosphate salts of 1-(9H-carbazol-4yloxy)-3-[[2-(2-methoxyphenoxy)ethyl]amino]-propan-2-ol], the aqueous solubility (as described in US 2005/0277689 A1, compared with carvedilol) is listed as “much higher aqueous solubility”.
